Where two headings read alike, the source gives them in different places.
What was measured:
[1] = system: sleep disturbance in PTSD; conditions: administered at bedtime; cited from earlier work
PTSD symptoms [2] = conditions: 1 to 4 mg orally at bedtime, alone or with sertraline or prazosin; one to three months after the trauma
Text: (§1) At this point the usual natural history of the disease has progressed to the point where patients typically experience recurrent nightmares associated with their traumatic events. […] In addition patients at this stage in the evolution of their disorder have a constellation of daytime symptoms consisting of hyperarousal, hypervigilance, exaggerated startle, and other signs of overactive vigilance behaviors. Also, at this point patients begin to engage in avoidant behaviors such that they actively avoided people and circumstances that might trigger memories of the traumatic event. Lastly, patients begin to experience daytime reexperiencing of their traumatic events in the form of flashbacks. […] These include hyperarousal, hypervigilance, exaggerated startle, and avoidant behavior.

PTSD symptoms [3] = conditions: 1 to 4 mg orally at bedtime, alone or with sertraline or prazosin; PTSD present for greater than three months
Text: as §1, with “In patients with well-established PTSD that has been present for greater than three months. At” for “At”, “nightmares and daytime flashbacks” for “nightmares”, “with highly vivid memories of the” for “with their”, “traumatic event.” for “traumatic events.”

PTSD symptoms [4] = conditions: 1 to 4 mg orally at bedtime, alone or with sertraline or prazosin, started within one week of the trauma
fibromyalgia patients = conditions: 120 fibromyalgia patients, 10 to 40 mg, 12-week period; cited from earlier work

COc1cc2nc(N3CCN(C(=O)c4ccco4)CC3)nc(N)c2cc1OC [prazosin]
sleep [1]: improves sleep

CN(C)CCC=C1c2ccccc2C=Cc2ccccc21 [cyclobenzaprine, 3-(5H-dibenzo[a,d]cyclohepten-5-ylidene)-N,N-dimethyl-1-propanamine]
daytime symptoms not associated with sleep (hyperarousal, hypervigilance, exaggerated startle, avoidant behavior) (PTSD symptoms [2]): greatly reduced or eliminated | sleep associated symptomatology (nightmares, distress, insomnia, daytime fatigue, cognitive function) (PTSD symptoms [2]): significant improvements | daytime symptoms not associated with sleep (hyperarousal, hypervigilance, exaggerated startle, avoidant behavior) (PTSD symptoms [3]): greatly reduced or eliminated | sleep associated symptomatology (nightmares, distress, insomnia, daytime fatigue, cognitive function) (PTSD symptoms [3]): significant improvements | avoiding behavior or hyperarousal symptoms (PTSD symptoms [4]): No avoiding behavior or hyperarousal symptoms develop | daytime fatigue compared to untreated patients (PTSD symptoms [4]): diminished | sleep quality compared to untreated patients (PTSD symptoms [4]): substantially better in quality | frequency of nightmares or flashbacks (PTSD symptoms [4]; three-month interval): declines eventually approaching zero | pain score (fibromyalgia patients): significantly improved | quality of sleep (fibromyalgia patients): significantly improved | total number of tender points and muscle tightness (fibromyalgia patients): reduction

— patent US9918948B2, “Methods and compositions for treating symptoms associated with post-traumatic stress disorder using cyclobenzaprine” (TONIX PHARMA HOLDINGS LIMITED, priority 2009, dated 2018)
